Patent US11617777B2, “Cytotoxic and anti-mitotic compounds, and methods of using the same” (ZYMEWORKS BC INC., priority 2013, dated 2023)
Where two headings read alike, the source gives them in different places.

How the values were obtained:
Jurkat cells [1] = test: Cytotoxicity of compounds, CellTiter-Glo; type: cell-based, Human; settings: Homo sapiens, Jurkat
How it was run: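 HCC1954 plated at 2500 cells/100 uL and attached overnight; Jurkat plated at 2500 cells/100 uL on the day of dosing. Cells exposed to 8-step 1:3 compound titrations for three nights at 37° C./5% CO2, in triplicate. CellTiter-Glo luminescence converted to % cytotoxicity versus medium-only control; EC50 by three-parameter nonlinear regression.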

HCC1954 cells [2] = test: Cytotoxicity assay of SMCC- and LC-SPDP-linked ADCs and free compounds; type: cell-based; settings: Homo sapiens
Procedure: (§1) The purified ADCs were then analysed for: total protein content (BCA assay, Pierce microBCA protocol), relative affinity for antigen binding (equilibrium native binding), and selective cytotoxic killing of HER2-positive cells (HCC1954) compared HER2-negative cells (Jurkat).
(§2) On the day prior to adding test articles, HCC1954 cells were added to opaque-walled 96-well tissue culture-treated microtiter plates using complete growth medium at a density of 2500 cells/100 microlitre (uL) of medium. The HCC1954 cells were incubated for one night at 37° C./5% CO2 to allow the cells to attach to the microtiter plate surface. On the day that test articles were added, Jurkat cells are added to separate 96-well microtiter plates at 2500 cells/100 uL using the same growth medium as HCC1954. To compare the ADC killing to that obtained from the free-compounds, the n-acyl sulfonamide compounds were first serially diluted using dimethyl sulfoxide or DMA, and then the prepared dilutions are added to complete growth medium at five-times the final concentration—compounds were then titrated 1:3, eight steps. To test the ADCs, they were diluted directly in growth medium at five-times the final concentration—ADCs were then titrated 1:3, eight steps. A control with no test article present (growth medium alone) was included on each microtiter plate in sextuplicate. The prepared compound/ADC titrations were added (twenty-five uL/well) in triplicate to both the HCC1954 cells and Jurkat cells. The cells and titrations were incubated at 37° C./5% CO2 for three nights. After the incubation, cell viability was measured using CellTiter-Glo® reagent by adding thirty uL of prepared CellTiter-Glo® to each assay well. The assay was incubated for at least twenty minutes in the dark prior to measuring emitted luminescence using a microplate luminometer (500 ms integration time). The collected relative luminescence units (RLU) were converted to % cytotoxicity using the Growth medium alone control mentioned above (% Cytotoxicity=1−[Well RLU/average medium alone control RLU]).

Jurkat cells [3] = test: as above; type: cell-based; settings: Homo sapiens
Procedure: as §1, §2

HCC1954 cells [4] = test: Cytotoxicity of compounds, CellTiter-Glo; type: cell-based; settings: Homo sapiens
Excerpt: (§3) Cell lines used: Human T-cell leukemia cell line Jurkat (ATCC: TIB-152); HCC1954 (ATCC: CRL. 2338); Human Pancreatic cells lines: AsPC-1 (ATCC: CRL-1682), BxPC-3 (ATCC: CRL.1687), HPAF-II (ATCC: CRL.1997), MiaPaCa2 (ATCC: CRL.1420), PANC-1 (ATCC: CRL.1469), Capan-1 (ATCC: HTB-79), Capan-2 (ATCC: HTB-80) and the Human gastric carcinoma cell line NCI-N87 (ATCC: CRL. 5822); AML-193 (ATCC: CRL.9589), CCRF-CEM (ATCC: CCL-119), DU145 (ATCC: HTB-81), PC-3 (ATCC: CRL.1435), A-431 (ATCC: CRL.1555), HT-29 (ATCC: HTB-38), A-172 (ATCC: CRL.1620), NCI-H358 (ATCC: CRL.5807), A549 (ATCC: CCL-185), Colo-205 (ATCC: CCL-222), MDA-MB-231 (ATCC: HTB-26), OVCAR-3 (ATCC: HTB-161), OV-90 (ATCC: CRL.11732), OE19 (Sigma: 96071721), RT 112/84 (Sigma: 85061106).
(§4) On the day prior to adding compounds, HCC1954 AsPC-1, BxPC-3, HPAF-II, MiaPaCa2, PANC-1, Capan-1, Capan-2 and NCI-N87 cells were added to opaque-walled 96-well tissue culture-treated microtiter plates using complete growth medium at a density of 2500 cells/100 microlitre (uL) of medium. These adherant cell lines cells were incubated for one night at 37° C./5% CO2 to allow the cells to attach to the microtiter plate surface. On the day that compounds were added, Jurkat cells are added to separate 96-well microtiter plates at 2500 cells/100 uL using the same growth medium as HCC1954. Compound were first serially diluted using dimethyl sulfoxide, and then the prepared dilutions are added to complete growth medium at five-times the final concentration—compounds were then titrated 1:3, eight steps. A control with no compound (growth medium alone) was included on each microtiter plate in sextuplicate. The prepared compounds titrations were added (twenty-five uL/well) in triplicate. The cells and compound titrations were incubated at 37° C./5% CO2 for three nights. After the incubation, cell viability is measured using CellTiter-Glo® reagent by adding thirty uL of prepared CellTiter-Glo® to each assay well. The assay is incubated for at least twenty minutes in the dark prior to measuring emitted luminescence using a microplate luminometer (500 ms integration time). The collected relative luminescence units (RLU) are converted to % cytotoxicity using the Growth medium alone control mentioned above (% Cytotoxicity=1−[Well RLU/average medium alone control RLU]).
(§5) GraphPad Prism was used for generation of EC50 values using three parameter non-linear regression curve fitting.

HPAF-II = test: Cytotoxicity of compounds, CellTiter-Glo; type: cell-based; settings: Homo sapiens
Excerpt: (§6) FIG. 1 summarizes the data for compounds A, B, C, D, and E when tested using the Human mammary carcinoma cell line HCC1954 or Human T-cell leukemia cell line Jurkat. FIGS. 2-6 show the cytotoxicity data plots for individual compounds A-E. Tables 2-6 summarize the results of additional cytotoxicity assays.
as §3, §4, §5

Capan-2 = test: Cytotoxicity of compounds, CellTiter-Glo; type: cell-based; settings: Homo sapiens, Table 5
Excerpt: as §6, §3, §4, §5

MiaPaCa2 = test: Cytotoxicity of compounds, CellTiter-Glo; type: cell-based; settings: Homo sapiens
Excerpt: as §6, §3, §4, §5

AsPC-1 = test: Cytotoxicity of compounds, CellTiter-Glo; type: cell-based; settings: Homo sapiens
Excerpt: as §6, §3, §4, §5

PANC-1 = test: Cytotoxicity of compounds, CellTiter-Glo; type: cell-based; settings: Homo sapiens
Excerpt: as §6, §3, §4, §5

Capan-1 = test: Cytotoxicity of compounds, CellTiter-Glo; type: cell-based; settings: Homo sapiens, Table 5
Excerpt: as §6, §3, §4, §5

NCI-N87 = test: Cytotoxicity of compounds, CellTiter-Glo; type: cell-based; settings: Homo sapiens
Excerpt: as §6, §3, §4, §5

BxPC-3 = test: Cytotoxicity of compounds, CellTiter-Glo; type: cell-based; settings: Homo sapiens
Excerpt: as §6, §3, §4, §5

OVCAR-3 = test: Cytotoxicity on various cell lines; type: cell-based; settings: Homo sapiens, Table 8
Excerpt: as §6, §3, §4, §5

Colo-205 = test: Cytotoxicity on various cell lines; type: cell-based; settings: Homo sapiens, Table 8
Excerpt: as §6, §3, §4, §5

PC-3 = test: Cytotoxicity on various cell lines; type: cell-based; settings: Homo sapiens, Table 8
Excerpt: as §6, §3, §4, §5

NCI-H358 = test: Cytotoxicity on various cell lines; type: cell-based; settings: Homo sapiens, Table 8
Excerpt: as §6, §3, §4, §5

OE19 = test: Cytotoxicity on various cell lines; type: cell-based; settings: Homo sapiens, Table 8
Excerpt: as §6, §3, §4, §5

DU145 = test: Cytotoxicity on various cell lines; type: cell-based; settings: Homo sapiens, DU-145, Table 8
Excerpt: as §6, §3, §4, §5

HT-29 = test: Cytotoxicity on various cell lines; type: cell-based; settings: Homo sapiens, Table 8
Excerpt: as §6, §3, §4, §5

AML-193 = test: Cytotoxicity on various cell lines; type: cell-based; settings: Table 8
Excerpt: as §6, §3, §4, §5

OV-90 = test: Cytotoxicity on various cell lines; type: cell-based; settings: Homo sapiens, Table 8
Excerpt: as §6, §3, §4, §5

MDA-MB-231 = test: Cytotoxicity on various cell lines; type: cell-based; settings: Homo sapiens, Table 8
Excerpt: as §6, §3, §4, §5

CCRF-CEM = test: Cytotoxicity on various cell lines; type: cell-based; settings: Homo sapiens, Table 8
Excerpt: as §6, §3, §4, §5

A-172 = test: Cytotoxicity on various cell lines; type: cell-based; settings: Homo sapiens, Table 8
Excerpt: as §6, §3, §4, §5

A-431 = test: Cytotoxicity on various cell lines; type: cell-based; settings: Homo sapiens, Table 8
Excerpt: as §6, §3, §4, §5

RT112/84 = test: Cytotoxicity on various cell lines; type: cell-based; settings: Homo sapiens, Table 8
Excerpt: as §6, §3, §4, §5

[5] = Table 1, Jurkat cells (HER2−), three nights, read-out: Jurkat cells (HER2−) EC50
[6] = Table 3, Cytotoxicity of Compounds on Jurkat Cells, read-out: EC50
[7] = HCC1954, Table 10, Coupling #2, read-out: HCC1954 Best-fit EC50
[8] = Table 10, Coupling #2, read-out: Jurkat Best-fit EC50
[9] = HCC1954, Table 4, Cytotoxicity of Compounds on HCC-1954 Cells, read-out: EC50
[10] = Table 1, HCC1954 cells (HER2+), three nights, read-out: HCC1954 cells (HER2+) EC50
[11] = Table 2, HCC1954, read-out: HCC1954 EC50
[12] = HCC1954, Table 9, Coupling #1, read-out: HCC1954 Best-fit EC50
[13] = Table 9, Coupling #1, read-out: Jurkat Best-fit EC50

CN[C@H](C(=O)N[C@H](C(=O)N(C)[C@H](/C=C(\C)C(=O)NS(=O)(=O)c1ccc(CS)cc1)C(C)C)C(C)(C)C)C(C)(C)c1ccccc1 [Compound C, (S,E)-N-(4-(mercaptomethyl)phenylsulfonyl)-2,5-dimethyl-4-((S)—N,3,3-trimethyl-2-((S)-3-methyl-2-(methylamino)-3-phenylbutanamido)butanamido)hex-2-enamide]
EC50 (Jurkat cells [1]; [5]): 0.57 nM
EC50 (Jurkat cells [1]; Table 2, read-out: Jurkat EC50): 1.9 nM
EC50 (Jurkat cells [1]; [6]): 1.9 nM
EC50 (HCC1954 cells [2]; [7]): 0.67 nM
EC50 (Jurkat cells [3]; [8]): 0.57 nM
EC50 (HCC1954 cells [4]; [9]): 1.3 nM
EC50 (HCC1954 cells [4]; [10]): 0.67 nM
EC50 (HCC1954 cells [4]; [11]): 1.3 nM

CN[C@H](C(=O)N[C@H](C(=O)N(C)[C@H](/C=C(\C)C(=O)NS(=O)(=O)Cc1ccccc1)C(C)C)C(C)(C)C)C(C)(C)c1ccccc1 [Compound 14, (S,E)-N-(benzylsulfonyl)-2,5-dimethyl-4-((S)—N,3,3-trimethyl-2-((S)-3-methyl-2-(methylamino)-3-phenylbutanamido)butanamido)hex-2-enamide]
EC50 (HPAF-II; Table 5, read-out: Cytotoxicity (EC50) HPAF-II): 0.172 nM
EC50 (HPAF-II; Table 8, read-out: (EC50)): ~0.385 nM
EC50 (Capan-2): 1.1 nM
EC50 (MiaPaCa2; MIA PaCa-2, Table 5, MinPaCa2, read-out: Cytotoxicity (EC50) MinPaCa2): 0.204 nM
EC50 (MiaPaCa2; Table 8, Mia PaCa-2, read-out: (EC50)): 0.332 nM
EC50 (AsPC-1; ASPC1, Table 5, read-out: Cytotoxicity (EC50) AsPC-1): 0.206 nM
EC50 (AsPC-1; ASPC1, Table 8, read-out: (EC50)): 0.334 nM
EC50 (PANC-1; Table 5, read-out: Cytotoxicity (EC50) PANC-1): 1.36 nM
EC50 (PANC-1; Table 8, read-out: (EC50)): 0.759 nM
EC50 (Capan-1): 2.08 nM
EC50 (NCI-N87; Table 5, read-out: Cytotoxicity (EC50) NCI-N87): 0.175 nM
EC50 (NCI-N87; Table 8, read-out: (EC50)): 0.325 nM
EC50 (BxPC-3; Table 5, read-out: Cytotoxicity (EC50) BxPC-3): 0.0458 nM
EC50 (BxPC-3; Table 8, read-out: (EC50)): 0.196 nM
EC50 (OVCAR-3): 0.09 nM
EC50 (Colo-205): ~0.317 nM
EC50 (PC-3): 0.455 nM
EC50 (NCI-H358): 0.311 nM
EC50 (OE19): 0.21 nM
EC50 (DU145): 0.649 nM
EC50 (HT-29): 0.167 nM
EC50 (AML-193): 0.191 nM
EC50 (OV-90): 0.515 nM
EC50 (MDA-MB-231): 1.24 nM
EC50 (CCRF-CEM): 0.13 nM
EC50 (A-172): 0.598 nM
EC50 (A-431): 0.191 nM
EC50 (RT112/84): 0.178 nM
EC50 (HCC1954 cells [4]; HCC1954, Table 8, HCC-1954, read-out: (EC50)): 0.131 nM

CN[C@H](C(=O)N[C@H](C(=O)N(C)[C@H](/C=C(\C)C(=O)NS(=O)(=O)CCCS)C(C)C)C(C)(C)C)C(C)(C)c1ccccc1 [Compound A, (S,E)-N-(3-mercaptopropylsulfonyl)-2,5-dimethyl-4-((S)—N,3,3-trimethyl-2-((S)-3-methyl-2-(methylamino)-3-phenylbutanamido)butanamido)hex-2-enamide]
EC50 (Jurkat cells [1]; [5]): 0.78 nM
EC50 (Jurkat cells [1]; Table 2, read-out: Jurkat EC50): 5 nM
EC50 (Jurkat cells [1]; [6]): 4.5 nM
EC50 (HCC1954 cells [2]; [12]): 2.1 nM
EC50 (Jurkat cells [3]; [13]): 1.1 nM
EC50 (Jurkat cells [3]; [8]): 0.78 nM
EC50 (HCC1954 cells [4]; [9]): 2.1 nM
EC50 (HCC1954 cells [4]; [11]): 3 nM

CN[C@H](C(=O)N[C@H](C(=O)N(C)[C@H](/C=C(\C)C(=O)NS(=O)(=O)CCS)C(C)C)C(C)(C)C)C(C)(C)c1ccccc1 [Compound B, (S,E)-N-(2-mercaptoethylsulfonyl)-2,5-dimethyl-4-((S)—N,3,3-trimethyl-2-((S)-3-methyl-2-(methylamino)-3-phenylbutanamido)butanamido)hex-2-enamide]
EC50 (Jurkat cells [1]; [5]): 10.5 nM
EC50 (Jurkat cells [1]; Table 2, read-out: Jurkat EC50): 59 nM
EC50 (Jurkat cells [1]; [6]): 59 nM
EC50 (HCC1954 cells [2]; [12]): 8.1 nM
EC50 (HCC1954 cells [2]; [7]): 9.2 nM
EC50 (Jurkat cells [3]; [13]): 10 nM
EC50 (Jurkat cells [3]; [8]): 36 nM
EC50 (HCC1954 cells [4]; [9]): 13 nM
EC50 (HCC1954 cells [4]; [10]): 8.1 nM
EC50 (HCC1954 cells [4]; [11]): 13 nM
